Paper PMC9304322, “Targeting retinoic acid receptor alpha-corepressor interaction activates chaperone-mediated autophagy and protects against retinal degeneration” (Nature Communications, 2022)

How the values were obtained:
[1] = tested on: retinal explants of rd10 mice; test: Ex-vivo retinal cultures of rd10 mice; set-up: species or system mouse; conditions: rd10 P21 to P24; 40 μM for 72 h; vs contralateral untreated explant
Description: After removal of the eyes, all non-relevant tissue was removed from the neuroretina, which was then placed, photoreceptors upside down, in Millicell support inserts (Millipore, #PICM0RG50) and maintained in DMEM with 1 μM insulin (SIGMA, #I2643) for 72 h at 37 °C in a 5% CO2 atmosphere. Where indicated, retinas were incubated with 40 μM CA77 for the indicated times. The retinas were then washed twice with phosphate-buffered saline (PBS), fixed overnight in 4% paraformaldehyde (w/v) in 0.1 M phosphate buffer (pH 7.4) and processed. Retinas were separated along dorsoventral axis and nasal half was used for whole-mounts and temporal half was used for 12 µm cryosections.
Immunostainings were performed overnight at 4 °C using antibodies against visual (rod) arrestin and cone arrestin after initial permeabilization with 2% Triton X-100 for 1 h at RT and subsequent incubation with blocking solution (10% normal goat serum, 0.25% Triton X-100 in PBS). The retinas were then washed and incubated for 1 h with Alexa 568 or 647 (Invitrogen, #A-11004, #A32728), counterstained with DAPI (1 µg/mL, Sigma, # D9542), mounted in Fluoromount-G (Cultek, #100-01), and visualized by confocal microscopy in an SP5 confocal microscope (TCS SP5; Leica Microsystems). […]

CaCo-2 cells = test: Bidirectional permeability assay with CaCo-2 cells; type: in vitro ADME, human; conditions: in words
Description: In vitro solubility in the following conditions A) HBSS/HEPES 10 mM/BSA 0.1% pH 6 B) HBSS/HEPES 10 mM/BSA 0.1% pH 7.4 C) TRIS/BSA 0.1% PBS (pH 7.4 and at indicated doses were measured by Nephelometry using the NEPHELOstar Galaxy apparatus (BMG Lab Technologies). In vitro stability in human, mouse and rat liver microsomes and permeability using a bidirectional permeability assay with CaCo-2 cells (pH 6.5/7.4) assays were performed with standard methodology and analyzed by LC-MS/MS. at SIMM-SERVIER joint Biopharmacy Laboratory. ADME properties for CA39 and CA77 were predicted by QikProp (Schrödinger, LLC, Releases 2016-2020) software.

NIH3T3 = test: Cell viability after paraquat (CellTiter-Blue); type: cell-based, mouse

SMILES	cones (cone arrestin-positive) in retinal explants [1]	number of rods (rod arrestin-positive) in retinal explants [1]	membrane permeability (CaCo-2 cells)	protection against paraquat, compound added after the insult (NIH3T3; 2 μM or 10 μM, compared with AR7)	cell death by paraquat, compound administered before the insult (NIH3T3; 12 h treatment with 2 μM or 10 μM before PQ)
CC(=O)Nc1ccc(C2=Nc3ccc(Cl)cc3OC2)cc1 [CA77]	higher preservation for cones	significant preservation of the number of rods	highly membrane permeable		
Clc1ccc2c(c1)OCC(c1ccc(-c3ccccc3)cc1)=N2 [CA39]				significantly higher protection than AR7	reduced cell death
